In data set [1] the test system is CCRF-CEM. The data set is described as follows: Protection against compound 4- or 5-induced effect in human CCRF-CEM cells assessed as growth inhibition at […]. Details: scale not given: the % may be the effect or the level left.
The subject of data set [2] is CCRF-CEM. The data set is described as follows: Protection against methotrexate-induced effect in human CCRF-CEM cells assessed as growth inhibition at 0.1 mM. Details: scale not given: the % may be the effect or the level left. In kind it is functional.
Data set [3] deals with CCRF-CEM. The data set is described as follows: Protection against 5000 nM N-[4-[(2-amino-6-methyl-3,4-dihydro-4-oxo-7H-pyrrolo[2,3-d]pyrimidin-5-yl)thio]-2fluorobenzoyl]-L-glutamic acid-induced growth inhibition of human CCRF-CEM cells at 5 uM relative to control. In kind it is functional. Details: scale not given: the % may be the effect or the level left.
Data set [4] deals with CCRF-CEM. The data set is described as follows: Protection against 2400 nM N-[4-[(2-amino-6-methyl-3,4-dihydro-4-oxo-7H-pyrrolo[2,3-d]pyrimidin-5-yl)thio]-2chlorobenzoyl]-L-glutamic acid-induced growth inhibition of human CCRF-CEM cells at 5 uM relative to control. Type of data set: functional. Details: scale not given: the % may be the effect or the level left.
Data set [5] relates to CCRF-CEM. The data set is described as follows: Growth inhibition of human CCRF-CEM cells by thymidine at 5 uM relative to control. Details: scale not given: the % may be the effect or the level left.
The subject of data set [6] is CCRF-CEM. The data set is described as follows: Protection against 40 nM methotrexate-induced growth inhibition of human CCRF-CEM leukemia cells at 5 uM relative to control. Type of data set: functional. Details: scale not given: the % may be the effect or the level left.
Data set [7] has as its target T1, Dihydrofolate reductase (Homo sapiens, UniProt P00374).
T1 sequence (P00374 whole entry): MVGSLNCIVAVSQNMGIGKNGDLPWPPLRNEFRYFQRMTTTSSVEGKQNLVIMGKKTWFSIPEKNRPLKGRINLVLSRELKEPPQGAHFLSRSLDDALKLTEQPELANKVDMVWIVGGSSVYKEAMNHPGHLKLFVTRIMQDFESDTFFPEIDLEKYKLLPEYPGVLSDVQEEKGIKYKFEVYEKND

Data set [8] addresses T2, Dihydrofolate reductase (Escherichia coli, UniProt P0ABQ4).
T2 sequence (P0ABQ4 whole entry): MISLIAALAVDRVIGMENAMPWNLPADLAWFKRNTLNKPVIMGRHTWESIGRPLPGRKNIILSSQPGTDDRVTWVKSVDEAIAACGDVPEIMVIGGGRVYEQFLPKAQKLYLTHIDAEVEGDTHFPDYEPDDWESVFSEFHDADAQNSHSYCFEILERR

The subject of the next data set is R2. The data set is described as follows: Growth inhibition of MTX-resistant human CCRF-CEM R2 cells. In kind it is functional, cell-based.
The subject of a further data set is R1. The data set is described as follows: Growth inhibition of MTX-resistant human CCRF-CEM R1 cells overexpressing DHFR.
Data set [9] can be described thus: Cytotoxicity against human EKVX cells. In kind it is cell-based.
Data set [10] has as its target Thymidylate synthase (Escherichia coli, UniProt C3SWJ7). The data set is described as follows: Inhibition of Escherichia coli thymidylate synthase.
Data set [11] concerns CCRF-CEM. The data set is described as follows: Growth inhibition of MTX-resistant human CCRF-CEM R30dm cells. In kind it is functional, cell-based.
Data set [12] in a line: Cytotoxicity against BT549 cells. In kind it is cell-based, BT-549. The following applies: human.
Data set [13] is described as follows: Cytotoxicity against NCI/ADR-RES cells. Type of data set: cell-based. The following applies: human.
Data set [14] deals with CCRF-CEM. The data set is described as follows: Growth inhibition of human CCRF-CEM leukemia cells at 5000 nM relative to leucovorin. Type of data set: functional.
Data set [15] deals with T3, Folylpolyglutamate synthase, mitochondrial (Homo sapiens) (UniProt Q05932).
T3 sequence (whole entry): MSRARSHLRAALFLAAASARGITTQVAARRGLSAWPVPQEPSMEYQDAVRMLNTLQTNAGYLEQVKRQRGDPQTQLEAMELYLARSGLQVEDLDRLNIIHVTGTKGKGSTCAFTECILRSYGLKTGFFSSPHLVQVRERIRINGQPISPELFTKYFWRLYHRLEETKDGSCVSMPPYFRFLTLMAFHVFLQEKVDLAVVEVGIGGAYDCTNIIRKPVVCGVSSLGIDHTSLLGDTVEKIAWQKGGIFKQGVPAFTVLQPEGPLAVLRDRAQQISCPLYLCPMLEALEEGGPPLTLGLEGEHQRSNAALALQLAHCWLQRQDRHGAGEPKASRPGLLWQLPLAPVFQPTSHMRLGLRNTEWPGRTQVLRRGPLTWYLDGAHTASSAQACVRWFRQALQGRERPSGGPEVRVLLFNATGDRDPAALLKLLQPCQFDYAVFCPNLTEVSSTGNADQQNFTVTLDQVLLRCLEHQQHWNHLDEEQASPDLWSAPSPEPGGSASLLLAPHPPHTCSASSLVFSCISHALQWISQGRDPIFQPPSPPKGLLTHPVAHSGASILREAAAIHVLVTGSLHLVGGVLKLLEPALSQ
The data set is described as follows: Ratio of relative Vmax to Km of human recombinant FPGS.

Data set [16] is described as follows: Cytotoxicity against HCC2998 cells. In kind it is cell-based, HCC 2998. The following applies: human.
Another data set relates to SF-268. The data set is described as follows: Cytotoxicity against SF268 cells. In kind it is functional. The following applies: Homo sapiens.
Data set [17] can be described thus: Cytotoxicity against human CCRF-CEM leukemia cells. In kind it is cell-based.
Data set [18] deals with Thymidylate synthase (Homo sapiens, UniProt P04818).
Chain of Thymidylate synthase (Homo sapiens, UniProt P04818) (P04818 whole entry): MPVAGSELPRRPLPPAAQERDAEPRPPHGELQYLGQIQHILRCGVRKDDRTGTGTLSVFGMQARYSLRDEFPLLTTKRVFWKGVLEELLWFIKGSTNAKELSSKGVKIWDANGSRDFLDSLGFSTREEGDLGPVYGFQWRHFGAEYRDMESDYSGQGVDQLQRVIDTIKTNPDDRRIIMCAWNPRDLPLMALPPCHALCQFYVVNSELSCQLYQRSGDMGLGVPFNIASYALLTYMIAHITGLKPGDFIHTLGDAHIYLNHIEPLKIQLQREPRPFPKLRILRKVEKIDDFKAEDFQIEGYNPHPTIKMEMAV
Data set [19] deals with CCRF-CEM. The data set is described as follows: Growth inhibition of human CCRF-CEM cells. In kind it is functional, cell-based.
Data set [20] relates to CCRF-CEM. The data set is described as follows: Growth inhibition of human CCRF-CEM leukemia cells at 2400 nM relative to leucovorin. Type of data set: functional.
Substrate in data set [21]: Cc1[nH]c2nc(N)[nH]c(=O)c2c1Sc1ccc(C(=O)N[C@@H](CCC(=O)O)C(=O)O)c(Cl)c1
The data set is described as follows: (§1) Activity of human recombinant FPGS.

Substrate in data set [22]: Cc1[nH]c2nc(N)[nH]c(=O)c2c1Sc1ccc(C(=O)N[C@@H](CCC(=O)O)C(=O)O)c(F)c1
The data set is described as §1.

Substrate in data set [23]: Nc1nc(N)c2nc(CNc3ccc(C(=O)N[C@@H](CCC(=O)O)C(=O)O)cc3)cnc2n1
The description is as §1.

Substrate in data set [24]: Cc1[nH]c2nc(N)[nH]c(=O)c2c1Sc1ccc(C(=O)N[C@@H](CCC(=O)O)C(=O)O)c(Cl)c1
The data set is described as follows: (§2) Activity of human recombinant FPGS relative to AMT.

Substrate in data set [25]: Cc1[nH]c2nc(N)[nH]c(=O)c2c1Sc1ccc(C(=O)N[C@@H](CCC(=O)O)C(=O)O)c(F)c1
Described as §2.

Chain of Thymidylate synthase (Escherichia coli, UniProt C3SWJ7) (C3SWJ7 whole entry): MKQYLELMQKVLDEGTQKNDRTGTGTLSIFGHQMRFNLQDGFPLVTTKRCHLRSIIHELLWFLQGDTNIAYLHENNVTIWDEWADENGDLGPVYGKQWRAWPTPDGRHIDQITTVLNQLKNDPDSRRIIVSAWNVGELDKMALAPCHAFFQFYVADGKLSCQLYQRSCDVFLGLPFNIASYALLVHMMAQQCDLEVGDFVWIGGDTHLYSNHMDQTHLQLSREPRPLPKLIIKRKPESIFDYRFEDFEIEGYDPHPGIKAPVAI

`Nc1nc(=O)c2c([nH]1)NCC(CNc1ccc(C(=O)N[C@@H](CCC(=O)O)C(=O)O)cc1)N2C=O` (some centres not stated) [LEUCOVORIN]: the figures for the Activity in the data set on CCRF-CEM [1] and with CCRF-CEM [2] were 90% and 6%, respectively.

Consider `Cc1cn([C@H]2C[C@H](O)[C@@H](CO)O2)c(=O)[nH]c1=O` [DOXRIBTIMINE], for which the Activity turned out to be 96% in the data set with CCRF-CEM [3], 92% in the data set with CCRF-CEM [4], 40% in the data set on CCRF-CEM [5] and 10% with CCRF-CEM [6].

For `Cc1[nH]c2nc(N)[nH]c(=O)c2c1Sc1ccc(C(=O)N[C@@H](CCC(=O)O)C(=O)O)cc1`, the values for the IC50 at Dihydrofolate reductase [7] and on Dihydrofolate reductase [8] were 2.1 µM and 21 µM, respectively.

As for `CN(Cc1cnc2nc(N)nc(N)c2n1)c1ccc(C(=O)N[C@@H](CCC(=O)O)C(=O)O)cc1` [METHOTREXATE], the EC50 with R2 came out at 2.1 µM; with R1, 0.68 µM.

On to `Cc1[nH]c2nc(N)[nH]c(=O)c2c1Sc1ccc(C(=O)N[C@@H](CCC(=O)O)C(=O)O)c(F)c1`, for which the GI50 in data set [9] was 6.83 µM; in data set [12] it was 2.21 µM; in data set [13], 0.383 µM; in data set [16] it was less than 0.01 µM; with SF-268, 0.347 µM; in data set [17], 0.712 µM. For the same molecule, the EC50 in the data set with R2 was 2.45 µM; with CCRF-CEM [11], 0.305 µM; in the data set on R1, 0.505 µM; in the data set with CCRF-CEM [19] it was 0.215 µM. For the same molecule, the IC50 is 0.72 µM against Thymidylate synthase [10], 2.1 µM against Dihydrofolate reductase [7], 0.054 µM at Thymidylate synthase [18] and 21 µM at Dihydrofolate reductase [8]. In the data set with CCRF-CEM [14], the relative growth at 5 µM is 10. Moreover, the Ratio in [15] came to 0.

Regarding `Nc1nc(N)c2nc(CNc3ccc(C(=O)N[C@@H](CCC(=O)O)C(=O)O)cc3)cnc2n1`, the Ratio in [15] came out at 0.23.

On to `Cc1[nH]c2nc(N)[nH]c(=O)c2c1Sc1ccc(C(=O)N[C@@H](CCC(=O)O)C(=O)O)c(Cl)c1`, for which the GI50 in data set [9] was 0.758 µM; in [12] it was less than 0.01 µM; in [13], 8.54 µM; in [16], 1.48 µM; with SF-268, 7.44 µM. Further, the EC50 was determined as 12 µM in the data set on R2, 1.2 µM with CCRF-CEM [11], 1.9 µM in the data set on R1 and 0.69 µM in the data set with CCRF-CEM [19]. Further, the IC50 at Thymidylate synthase [10] is 5.1 µM; on Dihydrofolate reductase [7] it was 11 µM; against Thymidylate synthase [18], 0.051 µM; at Dihydrofolate reductase [8] it was 40 µM. Further, the Ratio in data set [15] was 0. 2.4 µM produced 11% inhibition in the data set on CCRF-CEM [20].

B1: Folylpolyglutamate synthase, mitochondrial (Homo sapiens), Q05932 (protein)
chain: T3 sequence (whole entry)
Take B1: the Km in data set [21] and in [22] was less than 250 µM each time. The values for the Vmax in data set [23], in data set [24] and in data set [25] were 1, 0 and 0, respectively.
